Measured values: US9994533B2, “Method of preparing ATG's analogue, and the application of ATG and it's analogue” (Longhua Hospital Shanghai University of Traditional Chinese …, priority 2016, dated 2018)

Target: T1, PP2A (Homo sapiens, UniProt P62714)
T1 construct: endogenous in cells; host or cells: 293T
Assay: PP2A activity in 293T cells stimulated with ATG analogues
Format: cell-based
Conditions: 10 μM, DMSO as reference, FIG. 11
Protocol: The biological activities of the three compounds were determined by measuring the downstream PP2A activity and the degree of phosphorylation of NF-kB. […] The concentrations of ATG and the three new compounds were 10 μM.

T1 sequence (P62714 whole entry): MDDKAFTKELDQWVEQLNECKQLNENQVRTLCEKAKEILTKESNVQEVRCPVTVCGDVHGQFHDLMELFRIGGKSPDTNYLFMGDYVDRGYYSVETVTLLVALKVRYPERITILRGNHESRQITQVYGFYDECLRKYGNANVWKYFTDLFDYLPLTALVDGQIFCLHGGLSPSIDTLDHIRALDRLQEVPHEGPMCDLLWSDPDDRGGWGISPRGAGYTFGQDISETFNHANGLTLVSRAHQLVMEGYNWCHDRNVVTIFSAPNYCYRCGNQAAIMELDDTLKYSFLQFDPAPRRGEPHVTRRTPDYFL

In the case of “Potassium trifluoro (4-(5-(3,4,5-trimethoxyphenyl)-1,2,4-oxadiazol-3-yl) phenyl) borate [BT282]”, the “effect on PP2A activity relative to native ATG” value is reported as “higher activity to PP2A than natural ATG”.
